Results reported in patent US20250114389A1, “NUCLEOSIDES AND NUCLEOTIDES ANALOGS AS ANTIVIRAL AGENTS” (Emory University, priority 2021, published 2025).
Read-outs that look alike come from different tables or passages of the source.

Assays:
Assay type in all cases: cell-based
SARS-CoV2 variant Gamma [1] = assay: microbe, parasite or virus in culture
[2] = system: SARS-CoV2 Lineage A (Eng); assay: Antiviral activity against SARS-CoV2 Lineage A (Eng) in Calu3
SARS-CoV2 Lineage A (Wa) [3] = assay: Antiviral activity against SARS-CoV2 Lineage A (Wa) in Calu3
SARS-CoV2 Lineage A (Wa) [4] = assay: Antiviral activity against SARS-CoV2 Lineage A (Wa) in Vero
SARS-CoV2 variant Beta [5] = assay: microbe, parasite or virus in culture
SARS-CoV2 variant Delta [6] = assay: microbe, parasite or virus in culture
SARS-CoV2 variant Alpha [7] = assay: microbe, parasite or virus in culture
SARS-CoV2 variant Delta [8] = assay: microbe, parasite or virus in culture; remark: listed apart in the source
SARS-CoV2 variant Beta [9] = assay: microbe, parasite or virus in culture; remark: listed apart in the source
SARS-CoV2 variant Alpha [10] = assay: microbe, parasite or virus in culture; remark: listed apart in the source
SARS-CoV2 variant Gamma [11] = assay: microbe, parasite or virus in culture; remark: listed apart in the source
[12] = Severe acute respiratory syndrome coronavirus 2, Vero, read-out: Antiviral Activity Against SARS-CoV2 Variants in Vero, first value column
[13] = Severe acute respiratory syndrome coronavirus 2, Calu-3, read-out: Antiviral Activity Against SARS-CoV2 Variants in Calu3, first value column
[14] = Severe acute respiratory syndrome coronavirus 2, Calu-3, Calu3, read-out: Antiviral Activity Against SARS-CoV2 Variants in Calu3, first value column

| Compound | Antiviral Activity Against SARS-CoV2 Variants in Vero (SARS-CoV2 variant Gamma [1]) | Antiviral Activity Against SARS-CoV2 Variants in Calu3, second value column [2] | Antiviral Activity Against SARS-CoV2 Variants in Calu3, second value column (SARS-CoV2 Lineage A (Wa) [3]) | Antiviral Activity Against SARS-CoV2 Variants in Vero (SARS-CoV2 Lineage A (Wa) [4]) | Antiviral Activity Against SARS-CoV2 Variants in Vero (SARS-CoV2 variant Beta [5]) | Antiviral Activity Against SARS-CoV2 Variants in Vero (SARS-CoV2 variant Delta [6]) | Antiviral Activity Against SARS-CoV2 Variants in Vero (SARS-CoV2 variant Alpha [7]) | Antiviral Activity Against SARS-CoV2 Variants in Calu3, second value column (SARS-CoV2 variant Delta [8]) | Antiviral Activity Against SARS-CoV2 Variants in Calu3, second value column (SARS-CoV2 variant Beta [9]) | Antiviral Activity Against SARS-CoV2 Variants in Calu3, second value column (SARS-CoV2 variant Alpha [10]) | other results |
| --- | --- | --- | --- | --- | --- | --- | --- | --- | --- | --- | --- |
| CCC(CC)COC(=O)[C@H](C)N[P@](=O)(OC[C@H]1O[C@@](C#N)(c2ccc3c(N)ncnn23)[C@H](O)[C@@H]1O)Oc1ccccc1 [Remdesivir, reference compound] | 2.2 µM | 2.3 µM | 0.3 µM | 2.9 µM | 1.6 µM | 2.1 µM | 0.6 µM | 0.3 µM | 0.4 µM | 0.4 µM | – |
| N#C[C@@]1(n2ccc(N)nc2=O)O[C@H](CO)[C@@H](O)[C@H]1O [Compound A, (2R,3R,4S,5R)-2-(4-amino-2-oxopyrimidin-1(2H)-yl)-3,4-dihydroxy-5-(hydroxymethyl)-tetrahydrofuran-2-carbonitrile] | 1.0 µM | 3.6 µM | 4.5 µM | 0.4 µM | 1.4 µM | 0.3 µM | 1.2 µM | 0.1 µM | 1.2 µM | 0.4 µM | EC50 (SARS-CoV2 variant Gamma [1]; [12]): 800 nM; EC50 [2, 13]: 1800 nM; EC50 (SARS-CoV2 Lineage A (Wa) [3]; [13]): 1700 nM; EC50 (SARS-CoV2 Lineage A (Wa) [4]; Severe acute respiratory syndrome coronavirus 2, read-out: Antiviral Activity Against SARS-CoV2 Variants in Vero, first value column): 200 nM; EC50 (SARS-CoV2 variant Beta [5]; [12]): 300 nM; EC50 (SARS-CoV2 variant Delta [6]; [12]): 200 nM; EC50 (SARS-CoV2 variant Alpha [7]; [12]): 800 nM; EC50 (SARS-CoV2 variant Delta [8]; [14]): 40 nM; Antiviral Activity Against SARS-CoV2 Variants in Calu3, second value column (SARS-CoV2 variant Gamma [11]): 1.2 µM; EC50 (SARS-CoV2 variant Gamma [11]; [14]): 1100 nM; EC50 (SARS-CoV2 variant Beta [9]; [14]): 300 nM; EC50 (SARS-CoV2 variant Alpha [10]; [14]): 100 nM |
